Measurements published in ChEMBL document CHEMBL3991601, “The target landscape of clinical kinase drugs” (Science, 2017).
The source made the active and inactive calls. Cut-off read from the data, not from the text of the source, for most assays here: actives have a measured Kd and inactives only a lower limit.

target: T1, Serine/threonine-protein kinase LATS1 (Homo sapiens, UniProt O95835)
T1 sequence (O95835 whole entry): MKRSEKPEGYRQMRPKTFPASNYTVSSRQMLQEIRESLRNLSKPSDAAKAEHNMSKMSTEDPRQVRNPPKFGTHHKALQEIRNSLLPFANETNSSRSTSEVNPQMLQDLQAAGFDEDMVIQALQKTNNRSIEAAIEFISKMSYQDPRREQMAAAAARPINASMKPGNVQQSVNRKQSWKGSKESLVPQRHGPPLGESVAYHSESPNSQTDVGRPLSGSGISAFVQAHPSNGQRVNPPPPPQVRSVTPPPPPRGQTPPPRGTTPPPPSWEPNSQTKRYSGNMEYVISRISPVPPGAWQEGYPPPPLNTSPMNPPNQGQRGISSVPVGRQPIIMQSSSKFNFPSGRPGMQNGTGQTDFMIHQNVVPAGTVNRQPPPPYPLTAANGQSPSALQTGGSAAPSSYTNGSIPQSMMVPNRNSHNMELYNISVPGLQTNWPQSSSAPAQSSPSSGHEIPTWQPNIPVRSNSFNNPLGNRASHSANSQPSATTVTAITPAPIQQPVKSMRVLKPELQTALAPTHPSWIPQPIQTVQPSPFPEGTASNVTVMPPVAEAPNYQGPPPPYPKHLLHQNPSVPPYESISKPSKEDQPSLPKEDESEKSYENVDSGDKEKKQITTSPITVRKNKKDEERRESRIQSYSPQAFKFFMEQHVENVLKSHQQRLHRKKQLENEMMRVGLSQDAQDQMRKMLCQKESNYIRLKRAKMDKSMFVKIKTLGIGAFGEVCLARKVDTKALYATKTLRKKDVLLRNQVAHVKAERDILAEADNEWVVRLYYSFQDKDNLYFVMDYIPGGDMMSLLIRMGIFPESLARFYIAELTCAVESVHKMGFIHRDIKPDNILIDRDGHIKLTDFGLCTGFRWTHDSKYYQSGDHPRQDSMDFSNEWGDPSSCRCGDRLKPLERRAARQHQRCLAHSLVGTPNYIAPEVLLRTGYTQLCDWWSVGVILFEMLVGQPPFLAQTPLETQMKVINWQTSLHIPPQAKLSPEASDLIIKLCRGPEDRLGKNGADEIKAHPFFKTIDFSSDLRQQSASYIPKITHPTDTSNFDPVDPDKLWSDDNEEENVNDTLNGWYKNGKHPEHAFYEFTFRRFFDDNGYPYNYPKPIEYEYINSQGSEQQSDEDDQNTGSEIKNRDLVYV
Note: in the data inactive means no Kd found up to 30 µM.

| Compound | Kd |
| --- | --- |
| N[C@@H]1CCCN(c2c(/C=C3\SC(=O)NC3=O)cccc2-c2ccccc2)C1 | > 30 µM (inactive) |
| CNC(=O)c1ccc(-c2cnc3ncc(Cc4ccc5ncccc5c4)n3n2)cc1F [CAPMATINIB] | > 30 µM (inactive) |
| O=C(c1ccc(F)c(F)c1Nc1ccc(I)cc1F)N1CC(O)([C@@H]2CCCCN2)C1 [COBIMETINIB] | > 30 µM (inactive) |
| Cc1nc(N)sc1-c1ccnc(Nc2ccc(N3CCOCC3)cc2)n1 [CYC-116] | 0.066 µM (active) |
| CCc1cnn2c(NCc3ccc[n+]([O-])c3)cc(N3CCCC[C@H]3CCO)nc12 [DINACICLIB] | > 30 µM (inactive) |

target: T2, Mitogen-activated protein kinase kinase kinase kinase 2 (Homo sapiens, UniProt Q12851)
T2 sequence (Q12851 whole entry): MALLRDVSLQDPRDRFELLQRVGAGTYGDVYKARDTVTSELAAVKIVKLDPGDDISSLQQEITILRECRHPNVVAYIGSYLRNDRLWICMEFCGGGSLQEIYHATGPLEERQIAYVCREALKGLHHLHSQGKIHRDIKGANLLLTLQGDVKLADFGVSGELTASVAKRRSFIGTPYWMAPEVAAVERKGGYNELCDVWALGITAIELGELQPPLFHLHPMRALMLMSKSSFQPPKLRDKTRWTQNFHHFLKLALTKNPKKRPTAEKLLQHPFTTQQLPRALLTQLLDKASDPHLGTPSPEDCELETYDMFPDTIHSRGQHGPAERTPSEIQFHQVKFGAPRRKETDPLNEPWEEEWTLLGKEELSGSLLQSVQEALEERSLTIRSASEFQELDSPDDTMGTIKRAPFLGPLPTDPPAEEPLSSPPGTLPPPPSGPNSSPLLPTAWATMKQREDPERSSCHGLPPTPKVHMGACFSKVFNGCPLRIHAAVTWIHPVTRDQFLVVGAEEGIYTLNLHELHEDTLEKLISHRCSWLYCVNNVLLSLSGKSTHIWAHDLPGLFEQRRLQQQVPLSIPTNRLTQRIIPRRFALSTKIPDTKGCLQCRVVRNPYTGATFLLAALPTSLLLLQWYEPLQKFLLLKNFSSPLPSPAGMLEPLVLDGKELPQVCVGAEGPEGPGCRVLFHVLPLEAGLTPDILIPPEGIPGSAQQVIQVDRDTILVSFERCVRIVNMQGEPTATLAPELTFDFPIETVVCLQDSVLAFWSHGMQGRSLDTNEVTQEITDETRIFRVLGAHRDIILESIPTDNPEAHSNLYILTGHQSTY

| Compound | Kd |
| --- | --- |
| N[C@@H]1CCCN(c2c(/C=C3\SC(=O)NC3=O)cccc2-c2ccccc2)C1 | > 30 µM (inactive) |
| CNC(=O)c1ccc(-c2cnc3ncc(Cc4ccc5ncccc5c4)n3n2)cc1F [CAPMATINIB] | > 30 µM (inactive) |
| O=C(c1ccc(F)c(F)c1Nc1ccc(I)cc1F)N1CC(O)([C@@H]2CCCCN2)C1 [COBIMETINIB] | > 30 µM (inactive) |

target: Protein kinase C delta type (Homo sapiens, UniProt Q05655)
Sequence (Q05655 whole entry): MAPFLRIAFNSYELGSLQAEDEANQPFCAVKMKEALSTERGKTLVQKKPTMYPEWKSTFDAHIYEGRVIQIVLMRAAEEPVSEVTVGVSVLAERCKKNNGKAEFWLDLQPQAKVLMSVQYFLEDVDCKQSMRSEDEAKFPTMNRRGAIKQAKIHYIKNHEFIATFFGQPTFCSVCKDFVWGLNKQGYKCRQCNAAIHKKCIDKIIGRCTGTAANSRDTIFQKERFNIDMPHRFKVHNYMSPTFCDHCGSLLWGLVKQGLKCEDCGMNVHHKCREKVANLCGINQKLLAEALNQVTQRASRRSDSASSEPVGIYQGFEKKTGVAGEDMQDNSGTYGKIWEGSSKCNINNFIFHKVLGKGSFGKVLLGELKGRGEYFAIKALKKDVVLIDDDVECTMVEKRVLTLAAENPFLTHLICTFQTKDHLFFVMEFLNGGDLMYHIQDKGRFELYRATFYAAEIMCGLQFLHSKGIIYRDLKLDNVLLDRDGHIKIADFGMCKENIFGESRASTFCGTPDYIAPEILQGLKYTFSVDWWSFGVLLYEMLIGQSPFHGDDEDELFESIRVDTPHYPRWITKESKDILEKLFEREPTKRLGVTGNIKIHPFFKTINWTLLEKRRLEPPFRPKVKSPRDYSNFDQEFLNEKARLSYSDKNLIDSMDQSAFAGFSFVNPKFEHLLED

| Compound | Kd |
| --- | --- |
| N[C@@H]1CCCN(c2c(/C=C3\SC(=O)NC3=O)cccc2-c2ccccc2)C1 | > 30 µM (inactive) |
| CNC(=O)c1ccc(-c2cnc3ncc(Cc4ccc5ncccc5c4)n3n2)cc1F [CAPMATINIB] | > 30 µM (inactive) |
| O=C(c1ccc(F)c(F)c1Nc1ccc(I)cc1F)N1CC(O)([C@@H]2CCCCN2)C1 [COBIMETINIB] | > 30 µM (inactive) |
| CCc1cnn2c(NCc3ccc[n+]([O-])c3)cc(N3CCCC[C@H]3CCO)nc12 [DINACICLIB] | > 30 µM (inactive) |

target: Mitogen-activated protein kinase 7 (Homo sapiens, UniProt Q13164)
Sequence (Q13164 whole entry): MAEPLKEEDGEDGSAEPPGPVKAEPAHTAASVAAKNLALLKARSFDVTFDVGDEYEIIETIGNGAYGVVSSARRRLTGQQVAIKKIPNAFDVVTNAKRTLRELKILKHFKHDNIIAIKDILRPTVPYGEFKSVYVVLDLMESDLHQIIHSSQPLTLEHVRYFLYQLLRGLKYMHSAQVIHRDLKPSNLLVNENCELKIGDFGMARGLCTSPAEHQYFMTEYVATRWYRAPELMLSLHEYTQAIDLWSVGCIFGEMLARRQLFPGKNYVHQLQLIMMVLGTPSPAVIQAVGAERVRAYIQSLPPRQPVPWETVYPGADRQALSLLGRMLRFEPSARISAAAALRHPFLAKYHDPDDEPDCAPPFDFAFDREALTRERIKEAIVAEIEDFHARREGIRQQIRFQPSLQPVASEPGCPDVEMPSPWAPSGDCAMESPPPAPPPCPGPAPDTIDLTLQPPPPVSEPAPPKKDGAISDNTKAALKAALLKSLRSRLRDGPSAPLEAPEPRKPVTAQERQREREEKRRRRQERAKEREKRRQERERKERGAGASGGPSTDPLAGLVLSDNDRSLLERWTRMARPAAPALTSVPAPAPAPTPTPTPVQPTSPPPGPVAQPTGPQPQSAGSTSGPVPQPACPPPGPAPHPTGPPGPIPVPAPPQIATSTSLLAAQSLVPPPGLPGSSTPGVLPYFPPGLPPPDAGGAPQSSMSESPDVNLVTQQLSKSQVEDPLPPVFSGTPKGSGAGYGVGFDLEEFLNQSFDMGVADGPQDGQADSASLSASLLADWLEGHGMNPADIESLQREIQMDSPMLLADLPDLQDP

| Compound | Kd |
| --- | --- |
| CNC(=O)c1ccc(-c2cnc3ncc(Cc4ccc5ncccc5c4)n3n2)cc1F [CAPMATINIB] | > 30 µM (inactive) |
| O=C(c1ccc(F)c(F)c1Nc1ccc(I)cc1F)N1CC(O)([C@@H]2CCCCN2)C1 [COBIMETINIB] | > 30 µM (inactive) |
| Cc1nc(N)sc1-c1ccnc(Nc2ccc(N3CCOCC3)cc2)n1 [CYC-116] | > 30 µM (inactive) |
| CCc1cnn2c(NCc3ccc[n+]([O-])c3)cc(N3CCCC[C@H]3CCO)nc12 [DINACICLIB] | > 30 µM (inactive) |

target: Tyrosine-protein kinase HCK (Homo sapiens, UniProt P08631)
Sequence (P08631 whole entry): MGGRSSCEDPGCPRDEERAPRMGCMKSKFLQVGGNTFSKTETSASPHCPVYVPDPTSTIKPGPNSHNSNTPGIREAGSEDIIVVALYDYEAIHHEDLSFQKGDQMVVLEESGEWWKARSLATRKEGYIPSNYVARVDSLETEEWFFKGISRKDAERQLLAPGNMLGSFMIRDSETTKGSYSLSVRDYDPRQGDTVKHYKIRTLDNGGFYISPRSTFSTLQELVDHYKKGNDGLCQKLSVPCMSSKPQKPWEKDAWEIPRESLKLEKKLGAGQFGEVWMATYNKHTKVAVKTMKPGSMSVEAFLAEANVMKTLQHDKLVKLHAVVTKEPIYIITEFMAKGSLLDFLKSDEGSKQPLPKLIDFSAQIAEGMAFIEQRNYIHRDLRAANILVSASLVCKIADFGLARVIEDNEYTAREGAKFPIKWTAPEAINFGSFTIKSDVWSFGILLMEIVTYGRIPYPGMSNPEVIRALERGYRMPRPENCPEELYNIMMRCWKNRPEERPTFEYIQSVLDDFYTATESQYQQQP

| Compound | Kd |
| --- | --- |
| N[C@@H]1CCCN(c2c(/C=C3\SC(=O)NC3=O)cccc2-c2ccccc2)C1 | > 30 µM (inactive) |
| CNC(=O)c1ccc(-c2cnc3ncc(Cc4ccc5ncccc5c4)n3n2)cc1F [CAPMATINIB] | > 30 µM (inactive) |
| O=C(c1ccc(F)c(F)c1Nc1ccc(I)cc1F)N1CC(O)([C@@H]2CCCCN2)C1 [COBIMETINIB] | > 30 µM (inactive) |
| CCc1cnn2c(NCc3ccc[n+]([O-])c3)cc(N3CCCC[C@H]3CCO)nc12 [DINACICLIB] | > 30 µM (inactive) |

target: LIM domain kinase 2 (Homo sapiens, UniProt P53671)
Sequence (P53671 whole entry, the tested form may be a part): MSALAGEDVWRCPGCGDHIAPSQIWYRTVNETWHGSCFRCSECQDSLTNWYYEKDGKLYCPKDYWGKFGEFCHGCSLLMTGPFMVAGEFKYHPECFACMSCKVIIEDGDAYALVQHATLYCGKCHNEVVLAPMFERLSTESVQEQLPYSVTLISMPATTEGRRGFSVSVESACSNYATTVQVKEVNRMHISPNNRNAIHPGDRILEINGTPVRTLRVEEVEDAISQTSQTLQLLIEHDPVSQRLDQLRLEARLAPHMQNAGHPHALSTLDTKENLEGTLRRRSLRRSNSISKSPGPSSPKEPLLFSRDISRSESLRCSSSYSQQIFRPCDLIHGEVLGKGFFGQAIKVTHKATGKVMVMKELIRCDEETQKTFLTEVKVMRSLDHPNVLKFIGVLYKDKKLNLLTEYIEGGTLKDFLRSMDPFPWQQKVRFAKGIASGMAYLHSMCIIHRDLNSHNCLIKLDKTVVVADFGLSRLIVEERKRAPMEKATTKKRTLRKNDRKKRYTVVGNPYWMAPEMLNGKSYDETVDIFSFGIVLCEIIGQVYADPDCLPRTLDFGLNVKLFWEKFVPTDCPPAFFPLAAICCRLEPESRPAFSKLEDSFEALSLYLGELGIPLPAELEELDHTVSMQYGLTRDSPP

| Compound | Kd |
| --- | --- |
| N[C@@H]1CCCN(c2c(/C=C3\SC(=O)NC3=O)cccc2-c2ccccc2)C1 | > 30 µM (inactive) |
| CNC(=O)c1ccc(-c2cnc3ncc(Cc4ccc5ncccc5c4)n3n2)cc1F [CAPMATINIB] | > 30 µM (inactive) |
| O=C(c1ccc(F)c(F)c1Nc1ccc(I)cc1F)N1CC(O)([C@@H]2CCCCN2)C1 [COBIMETINIB] | > 30 µM (inactive) |
| Cc1nc(N)sc1-c1ccnc(Nc2ccc(N3CCOCC3)cc2)n1 [CYC-116] | 2.55 µM (active) |
| CCc1cnn2c(NCc3ccc[n+]([O-])c3)cc(N3CCCC[C@H]3CCO)nc12 [DINACICLIB] | > 30 µM (inactive) |

target: Receptor-interacting serine/threonine-protein kinase 2 (Homo sapiens, UniProt O43353)
Sequence (O43353 whole entry): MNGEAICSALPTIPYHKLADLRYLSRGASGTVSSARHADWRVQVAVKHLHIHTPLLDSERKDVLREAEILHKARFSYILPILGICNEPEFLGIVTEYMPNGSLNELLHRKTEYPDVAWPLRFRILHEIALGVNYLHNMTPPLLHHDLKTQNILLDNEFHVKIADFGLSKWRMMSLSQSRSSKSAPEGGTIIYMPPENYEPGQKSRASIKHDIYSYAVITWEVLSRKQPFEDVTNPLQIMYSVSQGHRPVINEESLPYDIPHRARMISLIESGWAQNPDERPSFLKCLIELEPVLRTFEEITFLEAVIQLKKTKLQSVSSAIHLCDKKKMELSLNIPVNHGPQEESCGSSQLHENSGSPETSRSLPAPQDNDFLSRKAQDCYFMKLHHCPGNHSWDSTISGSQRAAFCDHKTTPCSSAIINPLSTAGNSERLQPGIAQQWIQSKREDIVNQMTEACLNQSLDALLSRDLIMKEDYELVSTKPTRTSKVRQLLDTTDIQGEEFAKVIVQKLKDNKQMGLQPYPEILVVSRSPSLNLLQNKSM

| Compound | Kd |
| --- | --- |
| N[C@@H]1CCCN(c2c(/C=C3\SC(=O)NC3=O)cccc2-c2ccccc2)C1 | > 30 µM (inactive) |
| CNC(=O)c1ccc(-c2cnc3ncc(Cc4ccc5ncccc5c4)n3n2)cc1F [CAPMATINIB] | > 30 µM (inactive) |
| O=C(c1ccc(F)c(F)c1Nc1ccc(I)cc1F)N1CC(O)([C@@H]2CCCCN2)C1 [COBIMETINIB] | > 30 µM (inactive) |
| CCc1cnn2c(NCc3ccc[n+]([O-])c3)cc(N3CCCC[C@H]3CCO)nc12 [DINACICLIB] | > 30 µM (inactive) |

target: T3, Serine/threonine-protein kinase Nek2 (Homo sapiens, UniProt P51955)
T3 sequence (P51955 whole entry): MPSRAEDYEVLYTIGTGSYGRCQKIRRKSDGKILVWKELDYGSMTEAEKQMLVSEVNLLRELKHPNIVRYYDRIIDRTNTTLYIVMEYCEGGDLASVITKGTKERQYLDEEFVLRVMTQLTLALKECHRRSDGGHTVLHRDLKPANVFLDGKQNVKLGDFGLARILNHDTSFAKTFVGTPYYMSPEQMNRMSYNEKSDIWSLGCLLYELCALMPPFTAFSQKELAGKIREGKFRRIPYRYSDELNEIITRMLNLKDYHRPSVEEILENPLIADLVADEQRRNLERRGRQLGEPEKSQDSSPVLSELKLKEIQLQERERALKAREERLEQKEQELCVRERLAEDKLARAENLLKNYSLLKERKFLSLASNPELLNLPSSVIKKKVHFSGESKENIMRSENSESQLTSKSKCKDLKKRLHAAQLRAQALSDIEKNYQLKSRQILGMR

| Compound | Kd |
| --- | --- |
| N[C@@H]1CCCN(c2c(/C=C3\SC(=O)NC3=O)cccc2-c2ccccc2)C1 | > 30 µM (inactive) |
| CNC(=O)c1ccc(-c2cnc3ncc(Cc4ccc5ncccc5c4)n3n2)cc1F [CAPMATINIB] | > 30 µM (inactive) |
| O=C(c1ccc(F)c(F)c1Nc1ccc(I)cc1F)N1CC(O)([C@@H]2CCCCN2)C1 [COBIMETINIB] | > 30 µM (inactive) |

target: Midasin (Homo sapiens, UniProt Q9NU22)

| Compound | Kd |
| --- | --- |
| N[C@@H]1CCCN(c2c(/C=C3\SC(=O)NC3=O)cccc2-c2ccccc2)C1 | > 30 µM (inactive) |
| CNC(=O)c1ccc(-c2cnc3ncc(Cc4ccc5ncccc5c4)n3n2)cc1F [CAPMATINIB] | > 30 µM (inactive) |
| O=C(c1ccc(F)c(F)c1Nc1ccc(I)cc1F)N1CC(O)([C@@H]2CCCCN2)C1 [COBIMETINIB] | > 30 µM (inactive) |
| Cc1nc(N)sc1-c1ccnc(Nc2ccc(N3CCOCC3)cc2)n1 [CYC-116] | > 30 µM (inactive) |
| CCc1cnn2c(NCc3ccc[n+]([O-])c3)cc(N3CCCC[C@H]3CCO)nc12 [DINACICLIB] | > 30 µM (inactive) |

target: Cyclin-dependent kinase 3 (Homo sapiens, UniProt Q00526)
Sequence (Q00526 whole entry): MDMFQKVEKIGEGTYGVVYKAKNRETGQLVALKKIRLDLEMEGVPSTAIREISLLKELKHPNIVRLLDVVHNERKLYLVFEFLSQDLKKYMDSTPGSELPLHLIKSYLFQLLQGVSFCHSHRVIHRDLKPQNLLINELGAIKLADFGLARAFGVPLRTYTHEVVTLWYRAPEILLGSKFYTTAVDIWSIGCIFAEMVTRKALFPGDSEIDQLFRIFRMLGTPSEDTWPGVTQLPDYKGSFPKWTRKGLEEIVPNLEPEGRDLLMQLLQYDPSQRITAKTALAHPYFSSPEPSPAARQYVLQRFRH

| Compound | Kd |
| --- | --- |
| N[C@@H]1CCCN(c2c(/C=C3\SC(=O)NC3=O)cccc2-c2ccccc2)C1 | > 30 µM (inactive) |
